Key:
[1] = target: ALK1 (Homo sapiens (Human), UniProt P37023); assay: Kinase selectivity profiling; type: biochemical
Protocol: (§1) Kinase assays were performed in 96-well FlashPlates™ from Perkin Elmer in a […]. […] The reaction cocktail contained 70 mM HEPES-NaOH, pH 7.5, 3 mM MnCl2, 3 μM Na3VO4, 1.2 mM DTT, 1 μM [γ-^33P]-ATP (approximately 6×10^5 cpm per well), protein kinase (variable amounts), and substrate (variable amounts). The reaction cocktails were incubated at 30° C. for 60 min. The reaction was stopped with 50 μL of 2% (v/v) H3PO4, and plates were aspirated and washed two times with 200 μL 0.9% (w/v) NaCl. ALL assays were performed with a BeckmanCoulter Biomek 2000/SL robotic system. Incorporation of ^33Pi (counting of “cpm”) was determined with a microplate scintillation counter.

[2] = target: ALK2 (Homo sapiens (Human), UniProt Q04771); assay: Kinase selectivity profiling; type: biochemical
Protocol: as §1

[3] = target: ALK3 (Homo sapiens (Human), UniProt P36894); assay: Kinase selectivity profiling; type: biochemical
Protocol: as §1

[4] = target: CDK1/CycA (Homo sapiens (Human), UniProt P06493); assay: Kinase selectivity profiling; type: biochemical
Sequence of CDK1/CycA (P06493 whole entry, species assumed): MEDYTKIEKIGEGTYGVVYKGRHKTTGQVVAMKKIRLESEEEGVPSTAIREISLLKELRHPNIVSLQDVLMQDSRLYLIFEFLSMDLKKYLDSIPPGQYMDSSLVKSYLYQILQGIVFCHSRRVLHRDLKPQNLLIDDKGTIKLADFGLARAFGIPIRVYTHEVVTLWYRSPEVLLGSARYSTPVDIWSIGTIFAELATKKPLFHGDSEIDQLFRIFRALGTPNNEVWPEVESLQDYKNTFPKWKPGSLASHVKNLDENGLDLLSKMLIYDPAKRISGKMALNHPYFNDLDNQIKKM
Sequence of CDK1/CycA (P20248 whole entry partner, species assumed): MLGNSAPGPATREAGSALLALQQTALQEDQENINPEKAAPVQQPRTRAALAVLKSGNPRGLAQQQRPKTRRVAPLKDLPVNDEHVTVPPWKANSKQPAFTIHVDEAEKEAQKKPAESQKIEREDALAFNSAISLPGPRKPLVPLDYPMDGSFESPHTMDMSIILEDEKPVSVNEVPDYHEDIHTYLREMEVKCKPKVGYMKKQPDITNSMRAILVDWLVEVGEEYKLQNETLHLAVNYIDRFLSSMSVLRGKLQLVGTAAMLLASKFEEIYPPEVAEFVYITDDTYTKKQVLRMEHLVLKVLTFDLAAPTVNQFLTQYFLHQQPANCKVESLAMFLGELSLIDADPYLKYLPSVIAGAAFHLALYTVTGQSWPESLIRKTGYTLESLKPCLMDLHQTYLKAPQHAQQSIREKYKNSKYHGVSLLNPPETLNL
Protocol: as §1

[5] = target: CHK1 (Homo sapiens (Human), UniProt O14757); assay: Kinase selectivity profiling; type: biochemical
Protocol: as §1

[6] = target: DAPK1 (Homo sapiens (Human), UniProt P53355); assay: Kinase selectivity profiling; type: biochemical
Protocol: as §1

[7] = target: EGF-R wt (Homo sapiens (Human), UniProt P00533); assay: Kinase selectivity profiling; type: biochemical
Protocol: as §1

[8] = target: ERK1 (Homo sapiens (Human), UniProt P27361); assay: Kinase selectivity profiling; type: biochemical
Sequence of ERK1 (P27361 whole entry, species assumed): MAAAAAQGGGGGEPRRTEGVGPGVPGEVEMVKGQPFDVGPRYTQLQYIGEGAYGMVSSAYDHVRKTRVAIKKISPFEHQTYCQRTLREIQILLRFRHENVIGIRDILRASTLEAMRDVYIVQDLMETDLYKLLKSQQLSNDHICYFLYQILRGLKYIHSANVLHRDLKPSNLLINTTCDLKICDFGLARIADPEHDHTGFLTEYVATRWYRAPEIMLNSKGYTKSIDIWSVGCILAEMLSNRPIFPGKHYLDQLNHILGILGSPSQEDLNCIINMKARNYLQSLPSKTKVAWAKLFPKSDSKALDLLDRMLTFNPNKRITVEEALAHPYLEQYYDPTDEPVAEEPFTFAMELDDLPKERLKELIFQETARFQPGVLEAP
Protocol: as §1

[9] = target: GSK3α (Homo sapiens (Human), UniProt P49840); assay: Kinase selectivity profiling; type: biochemical
Protocol: as §1

[10] = target: MEK1 wt (Homo sapiens (Human), UniProt Q02750); assay: Kinase selectivity profiling; type: biochemical
Protocol: as §1

[11] = target: MET wt (Homo sapiens (Human), UniProt P08581); assay: Kinase selectivity profiling; type: biochemical
Sequence of MET wt (P08581 25-1390): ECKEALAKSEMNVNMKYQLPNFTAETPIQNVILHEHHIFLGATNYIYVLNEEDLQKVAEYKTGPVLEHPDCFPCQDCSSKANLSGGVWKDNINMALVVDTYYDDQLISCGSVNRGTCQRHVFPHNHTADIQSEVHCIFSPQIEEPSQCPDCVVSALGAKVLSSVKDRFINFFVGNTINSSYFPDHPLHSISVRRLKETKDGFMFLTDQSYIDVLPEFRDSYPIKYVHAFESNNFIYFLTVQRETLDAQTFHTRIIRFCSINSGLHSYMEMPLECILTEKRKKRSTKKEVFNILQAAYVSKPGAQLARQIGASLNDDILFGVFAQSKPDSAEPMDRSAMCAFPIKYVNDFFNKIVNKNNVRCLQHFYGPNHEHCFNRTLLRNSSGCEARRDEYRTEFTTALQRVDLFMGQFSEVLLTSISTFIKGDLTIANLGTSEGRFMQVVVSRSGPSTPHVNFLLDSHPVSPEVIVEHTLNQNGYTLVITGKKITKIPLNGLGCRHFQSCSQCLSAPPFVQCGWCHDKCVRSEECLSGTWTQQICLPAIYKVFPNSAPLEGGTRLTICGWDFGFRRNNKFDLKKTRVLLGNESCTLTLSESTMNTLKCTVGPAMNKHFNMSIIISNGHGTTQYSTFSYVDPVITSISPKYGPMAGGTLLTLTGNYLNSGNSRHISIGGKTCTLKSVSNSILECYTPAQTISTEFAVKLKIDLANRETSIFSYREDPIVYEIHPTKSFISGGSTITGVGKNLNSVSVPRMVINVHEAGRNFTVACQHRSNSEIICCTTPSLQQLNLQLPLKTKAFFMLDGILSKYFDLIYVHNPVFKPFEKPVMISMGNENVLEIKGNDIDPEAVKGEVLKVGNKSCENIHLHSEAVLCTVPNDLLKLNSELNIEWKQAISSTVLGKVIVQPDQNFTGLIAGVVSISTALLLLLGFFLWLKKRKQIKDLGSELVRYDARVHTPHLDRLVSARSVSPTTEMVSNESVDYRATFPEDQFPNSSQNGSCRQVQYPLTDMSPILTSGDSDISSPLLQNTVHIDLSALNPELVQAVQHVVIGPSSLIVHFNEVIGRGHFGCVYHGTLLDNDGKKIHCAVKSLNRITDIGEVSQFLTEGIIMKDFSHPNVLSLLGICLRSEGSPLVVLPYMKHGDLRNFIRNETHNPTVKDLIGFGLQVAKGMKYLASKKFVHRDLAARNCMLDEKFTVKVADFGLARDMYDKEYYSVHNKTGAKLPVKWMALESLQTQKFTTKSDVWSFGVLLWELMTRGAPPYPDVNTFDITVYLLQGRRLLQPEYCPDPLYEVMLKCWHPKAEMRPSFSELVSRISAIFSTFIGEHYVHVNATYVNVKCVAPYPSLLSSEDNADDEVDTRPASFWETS
Protocol: as §1

[12] = target: MST1 (Homo sapiens (Human), UniProt Q13043); assay: Kinase selectivity profiling; type: biochemical
Protocol: as §1

[13] = target: PAK1 (Homo sapiens (Human), UniProt Q13153); assay: Kinase selectivity profiling; type: biochemical
Protocol: as §1

[14] = target: PDGFRα wt (Homo sapiens (Human), UniProt P16234); assay: Kinase selectivity profiling; type: biochemical
Protocol: as §1

[15] = target: PDGFRβ (Homo sapiens (Human), UniProt P09619); assay: Kinase selectivity profiling; type: biochemical
Sequence of PDGFRβ (P09619 33-1106, species assumed): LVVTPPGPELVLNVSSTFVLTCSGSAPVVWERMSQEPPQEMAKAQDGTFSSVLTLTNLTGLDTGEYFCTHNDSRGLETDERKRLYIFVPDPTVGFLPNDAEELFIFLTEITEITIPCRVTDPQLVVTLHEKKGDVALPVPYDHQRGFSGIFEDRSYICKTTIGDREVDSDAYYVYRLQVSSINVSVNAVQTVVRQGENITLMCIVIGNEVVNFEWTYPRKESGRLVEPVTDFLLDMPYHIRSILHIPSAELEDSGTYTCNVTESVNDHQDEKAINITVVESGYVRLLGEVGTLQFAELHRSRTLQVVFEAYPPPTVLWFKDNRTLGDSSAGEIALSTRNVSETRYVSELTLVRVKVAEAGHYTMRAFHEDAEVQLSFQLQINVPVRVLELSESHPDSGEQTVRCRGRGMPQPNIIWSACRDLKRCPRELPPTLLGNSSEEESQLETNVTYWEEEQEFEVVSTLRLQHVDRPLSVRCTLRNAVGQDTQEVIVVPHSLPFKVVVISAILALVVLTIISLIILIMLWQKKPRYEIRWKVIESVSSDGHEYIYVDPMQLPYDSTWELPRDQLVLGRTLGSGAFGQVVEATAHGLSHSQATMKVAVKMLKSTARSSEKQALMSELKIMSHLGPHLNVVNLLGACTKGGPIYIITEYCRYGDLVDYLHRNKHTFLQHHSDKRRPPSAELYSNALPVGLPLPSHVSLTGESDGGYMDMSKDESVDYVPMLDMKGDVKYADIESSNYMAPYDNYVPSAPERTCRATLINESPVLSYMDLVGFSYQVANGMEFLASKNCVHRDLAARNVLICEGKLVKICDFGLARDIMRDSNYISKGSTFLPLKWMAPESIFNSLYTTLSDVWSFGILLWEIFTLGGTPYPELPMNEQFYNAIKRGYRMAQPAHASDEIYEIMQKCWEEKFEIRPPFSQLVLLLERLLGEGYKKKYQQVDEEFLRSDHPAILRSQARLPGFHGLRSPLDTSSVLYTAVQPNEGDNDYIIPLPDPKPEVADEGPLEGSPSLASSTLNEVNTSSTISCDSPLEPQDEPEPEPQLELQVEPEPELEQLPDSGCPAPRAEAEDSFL
Protocol: as §1

[16] = target: PKA (Homo sapiens (Human), UniProt P17612); assay: Kinase selectivity profiling; type: biochemical
Protocol: as §1

[17] = target: PKCα (Homo sapiens (Human), UniProt P17252); assay: Kinase selectivity profiling; type: biochemical
Protocol: as §1

[18] = target: ROCK1 (Homo sapiens (Human), UniProt Q13464); assay: Kinase selectivity profiling; type: biochemical
Protocol: as §1

[19] = target: RPS6KA1 (Homo sapiens (Human), UniProt Q15418); assay: Kinase selectivity profiling; type: biochemical
Sequence of RPS6KA1 (Q15418 whole entry, species assumed): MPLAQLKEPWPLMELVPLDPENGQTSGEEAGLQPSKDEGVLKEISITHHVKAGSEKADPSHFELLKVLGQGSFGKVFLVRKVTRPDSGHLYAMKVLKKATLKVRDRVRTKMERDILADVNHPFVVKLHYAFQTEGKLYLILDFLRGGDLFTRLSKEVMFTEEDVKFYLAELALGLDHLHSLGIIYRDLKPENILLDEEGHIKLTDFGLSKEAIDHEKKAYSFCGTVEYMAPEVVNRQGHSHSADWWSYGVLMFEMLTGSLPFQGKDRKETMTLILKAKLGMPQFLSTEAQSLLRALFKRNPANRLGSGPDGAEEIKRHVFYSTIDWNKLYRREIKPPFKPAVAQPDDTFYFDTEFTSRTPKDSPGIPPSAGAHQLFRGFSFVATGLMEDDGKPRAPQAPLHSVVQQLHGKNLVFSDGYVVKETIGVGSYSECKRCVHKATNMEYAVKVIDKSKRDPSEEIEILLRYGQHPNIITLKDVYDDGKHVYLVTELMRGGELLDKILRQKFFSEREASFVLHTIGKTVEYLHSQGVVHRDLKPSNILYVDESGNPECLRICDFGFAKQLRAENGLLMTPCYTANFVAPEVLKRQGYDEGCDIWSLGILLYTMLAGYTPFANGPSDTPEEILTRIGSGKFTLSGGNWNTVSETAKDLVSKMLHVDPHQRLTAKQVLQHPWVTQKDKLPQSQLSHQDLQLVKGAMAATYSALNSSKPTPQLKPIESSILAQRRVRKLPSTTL
Protocol: as §1

[20] = target: STK23 (Homo sapiens (Human), UniProt Q9UPE1); assay: Kinase selectivity profiling; type: biochemical
Protocol: as §1

[21] = target: VEGF-R1 (Homo sapiens (Human), UniProt P17948); assay: Kinase selectivity profiling; type: biochemical
Protocol: as §1

[22] = target: VEGF-R3 (Homo sapiens (Human), UniProt P35916); assay: Kinase selectivity profiling; type: biochemical
Protocol: as §1

[23] = tested on: TGF-β1-induced Smad2/3 nuclear translocation in MCF10A cells; assay: Immunofluorescence assay; type: cell-based; conditions: TGF-β1 2 ng/mL, 1 μM, 2 h
Protocol: MCF10A cells were plated on the cover glass in 6-well plate at 2×10^5 cells/well. After 12 h, when cells were attached, 10% FBS medium was changed to 0.5% FBS medium. […] Then, cells were fixed with 4% formaldehyde solution for 30 min at room temperature and quenched with quenching solution (50 mM NH4Cl in PBS) for 15 min. After being washed three times with PBS, cells were incubated with blocking/permeabilization solution (1% BSA and 0.1% Triton X-100 in PBS) for 1 h at room temperature and incubated with anti-Smad2/3 antibody (BD Biosciences, Franklin Lakes, N.J., USA) overnight at 4° C. Fluorescence was visualized by Cy3-conjugated goat anti-mouse IgG (Jackson ImmunoResearch Laboratories, Bar Harbor, Me., USA). Nuclei of the same cells were stained with DAPI solution. Cells were analyzed using the LSM 510 META laser confocal microscopy system (Carl Zeiss, Germany).

[24] = tested on: 4T1 cells; assay: Cell growth study (SRB assay), 4T1; type: cell-based; conditions: 0.2% serum medium, four days
Protocol: (§2) Either 4T1 cells or MCF10A cells were seeded in 96-well plate at 5×10^3 cells per well. […] After incubation for four days, cell viability was determined by SRB assay.

[25] = tested on: MCF10A cells; assay: Cell growth study (SRB assay), MCF10A; type: cell-based; conditions: 0.2% serum medium, four days
Protocol: as §2

[26] = tested on: bleomycin (BLM)-treated mice; assay: Anti-fibrotic effect on bleomycin-induced lung fibrosis model; type: in vivo
[27] = read-out: % inhibition at 1 μM, 1 μM
[28] = read-out: % inhibition at 10 μM, 10 μM
[29] = 5, 10, or 20 mg/kg orally five times per week for two weeks starting from day 7, Western blot

Sequence of ALK1 (P37023 22-503, species assumed): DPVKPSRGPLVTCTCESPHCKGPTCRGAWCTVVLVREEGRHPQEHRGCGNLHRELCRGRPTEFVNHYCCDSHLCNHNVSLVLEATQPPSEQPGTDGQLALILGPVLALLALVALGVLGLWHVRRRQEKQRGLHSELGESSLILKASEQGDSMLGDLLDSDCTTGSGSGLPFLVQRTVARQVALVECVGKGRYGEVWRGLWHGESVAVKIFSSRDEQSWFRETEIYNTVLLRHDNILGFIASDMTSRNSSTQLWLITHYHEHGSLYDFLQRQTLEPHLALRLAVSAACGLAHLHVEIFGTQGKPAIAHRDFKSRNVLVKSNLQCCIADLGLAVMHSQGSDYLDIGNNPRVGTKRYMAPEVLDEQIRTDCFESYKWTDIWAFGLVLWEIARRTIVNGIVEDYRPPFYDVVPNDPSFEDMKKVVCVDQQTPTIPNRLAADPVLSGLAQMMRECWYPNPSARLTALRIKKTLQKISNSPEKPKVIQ

Question: `Cc1cccc(-c2[nH]c(CNc3ccccc3F)nc2-c2ccc3ncnn3c2)n1` [Example 2, N-((4-([1,2,4]triazolo[1,5-a]pyridin-6-yl)-5-(6-methylpyridin-2-yl)-1H-imidazol-2-yl)methyl)-2-fluoroaniline] was tested. Which inhibition at 1 µM [1, 27] did it give?
Answer: 20%

Question: What about the inhibition at 10 µM [1, 28] of the same molecule?
Answer: 66%

Question: And the inhibition at 1 µM [2, 27]?
Answer: 17%

Question: What about the inhibition at 10 µM [2, 28] of the same molecule?
Answer: 71%

Question: What about the inhibition at 1 µM [3, 27] of the same molecule?
Answer: -6%

Question: What about the inhibition at 10 µM [3, 28] of the same molecule?
Answer: 27%

Question: What about the inhibition at 1 µM [4, 27] of the same molecule?
Answer: 5%

Question: And the inhibition at 10 µM [4, 28]?
Answer: 2%

Question: And the inhibition at 1 µM [5, 27]?
Answer: -2%

Question: And the inhibition at 10 µM [5, 28]?
Answer: 5%

Question: And the inhibition at 1 µM [6, 27]?
Answer: 5%

Question: What about the inhibition at 10 µM [6, 28] of the same molecule?
Answer: 11%

Question: And the inhibition at 1 µM [7, 27]?
Answer: -8%

Question: What about the inhibition at 10 µM [7, 28] of the same molecule?
Answer: 43%

Question: And the inhibition at 1 µM [8, 27]?
Answer: 17%

Question: What about the inhibition at 10 µM [8, 28] of the same molecule?
Answer: 66%

Question: And the inhibition at 1 µM [9, 27]?
Answer: 10%

Question: And the inhibition at 10 µM [9, 28]?
Answer: 15%

Question: And the inhibition at 1 µM [10, 27]?
Answer: 14%

Question: And the inhibition at 10 µM [10, 28]?
Answer: 47%

Question: And the inhibition at 1 µM [11, 27]?
Answer: -5%

Question: And the inhibition at 10 µM [11, 28]?
Answer: 12%

Question: And the inhibition at 1 µM [12, 27]?
Answer: -7%

Question: What about the inhibition at 10 µM [12, 28] of the same molecule?
Answer: 3%

Question: What about the inhibition at 1 µM [13, 27] of the same molecule?
Answer: -7%

Question: And the inhibition at 10 µM [13, 28]?
Answer: -3%

Question: And the inhibition at 1 µM [14, 27]?
Answer: 53%

Question: And the inhibition at 10 µM [14, 28]?
Answer: 91%

Question: And the inhibition at 1 µM [15, 27]?
Answer: 47%

Question: What about the inhibition at 10 µM [15, 28] of the same molecule?
Answer: 87%

Question: What about the inhibition at 1 µM [16, 27] of the same molecule?
Answer: -7%

Question: What about the inhibition at 10 µM [16, 28] of the same molecule?
Answer: 18%

Question: And the inhibition at 1 µM [17, 27]?
Answer: -9%

Question: What about the inhibition at 10 µM [17, 28] of the same molecule?
Answer: 4%

Question: And the inhibition at 1 µM [18, 27]?
Answer: 3%

Question: And the inhibition at 10 µM [18, 28]?
Answer: 9%

Question: What about the inhibition at 1 µM [19, 27] of the same molecule?
Answer: 6%

Question: What about the inhibition at 10 µM [19, 28] of the same molecule?
Answer: 14%

Question: What about the inhibition at 1 µM [20, 27] of the same molecule?
Answer: -4%

Question: And the inhibition at 10 µM [20, 28]?
Answer: -1%

Question: What about the IC50 [21] of the same molecule?
Answer: 391 nM

Question: And the IC50 [22]?
Answer: 257 nM

Question: What about the “TGF-β1-induced Smad2/3 nuclear translocation” value [23] of the same molecule?
Answer: suppressed

Question: And the 4T1 cell growth [24]?
Answer: no effect

Question: What about the MCF10A cell growth [25] of the same molecule?
Answer: slightly increased

Question: And the “fibronectin in BLM-induced fibrotic lung” value [26, 29]?
Answer: suppressed

Question: What about the “α-SMA in BLM-induced fibrotic lung” value [26, 29] of the same molecule?
Answer: suppressed

Question: What about the BLM-induced histological changes ([26]; all dose levels tested (5, 10, 20 mg/kg orally), lung, H&E staining) of the same molecule?
Answer: greatly reduced

— patent publication USRE47141E1, “Methods of treating fibrosis, cancer and vascular injuries” (EWHA University—Industry Collaboration Foundation, priority 2010, dated 2018)
